Experimental data as given in PubChem BioAssay (NCI).
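Grown in 96-well plates, cells were treated for 48 hours with each compound at five concentrations. Insufficient inhibition: endpoint recorded as highest concentration tested. Here, GI50 denotes the concentration required for 50% inhibition of growth. TGI marks complete inhibition of growth.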

How the values were obtained:
Test in all cases: inhibition of tumour cell growth, NCI panel, 48 h
ACHN renal = test system: ACHN renal
HCT-15 colon = test system: HCT-15 colon
HOP-62 NSCLC = test system: HOP-62 NSCLC
LOX IMVI melanoma = test system: LOX IMVI melanoma
MDA-N = test system: MDA-N
NCI-H226 lung = test system: NCI-H226 lung
OVCAR-5 ovarian = test system: OVCAR-5 ovarian
PC-3 prostate = test system: PC-3 prostate
SF-295 CNS = test system: SF-295 CNS
NCI-H522 lung = test system: NCI-H522 lung

## COc1ccc2c(c1)CCCN1CCc3cc(OC)c(OC)cc3C21 (centres undefined)
ACHN renal
  TGI: > 100 µM
HCT-15 colon
  TGI: > 100 µM
HOP-62 NSCLC
  TGI: > 100 µM
LOX IMVI melanoma
  TGI: > 100 µM
MDA-N
  TGI: > 100 µM
NCI-H226 lung
  TGI: > 100 µM
OVCAR-5 ovarian
  TGI: > 100 µM
PC-3 prostate
  TGI: > 100 µM
SF-295 CNS
  TGI: > 100 µM

## O=S(=O)(O)c1ccc2c(N=Nc3ccccc3Cl)c(O)ccc2c1
ACHN renal
  TGI: > 100 µM
HCT-15 colon
  TGI: > 100 µM
HOP-62 NSCLC
  TGI: > 100 µM
LOX IMVI melanoma
  TGI: > 100 µM
MDA-N
  TGI: > 100 µM
NCI-H522 lung
  TGI: > 100 µM
OVCAR-5 ovarian
  TGI: > 100 µM
PC-3 prostate
  TGI: > 100 µM
SF-295 CNS
  TGI: > 100 µM

## CCOC(=O)c1cc(=O)oc2c1N(C)c1ncccc1N2
ACHN renal
  TGI: > 100 µM
HCT-15 colon
  TGI: > 100 µM
HOP-62 NSCLC
  TGI: > 100 µM
LOX IMVI melanoma
  TGI: > 100 µM
MDA-N
  TGI: > 100 µM
NCI-H226 lung
  TGI: > 100 µM
OVCAR-5 ovarian
  TGI: > 100 µM
PC-3 prostate
  TGI: > 100 µM
SF-295 CNS
  TGI: > 100 µM

## CSc1nc(O)c(/C=C2\C=Nc3ccccc32)[nH]1
ACHN renal
  TGI: > 100 µM
HCT-15 colon
  TGI: > 100 µM
HOP-62 NSCLC
  TGI: > 100 µM
LOX IMVI melanoma
  TGI: > 100 µM
NCI-H226 lung
  TGI: > 100 µM
OVCAR-5 ovarian
  TGI: > 100 µM
PC-3 prostate
  TGI: > 100 µM

## O=C1CCCCC[C@]12SC[C@H]1CON=C12
ACHN renal
  TGI: > 100 µM
HCT-15 colon
  TGI: > 100 µM
LOX IMVI melanoma
  TGI: > 100 µM
MDA-N
  TGI: 32.5 µM
NCI-H226 lung
  TGI: > 100 µM
NCI-H522 lung
  TGI: 69.6 µM
OVCAR-5 ovarian
  TGI: > 100 µM
SF-295 CNS
  TGI: > 100 µM

## CSc1nncc2[nH]cnc12
ACHN renal
  TGI: > 100 µM
HCT-15 colon
  TGI: > 100 µM
HOP-62 NSCLC
  TGI: > 100 µM
MDA-N
  TGI: > 100 µM
NCI-H226 lung
  TGI: > 100 µM
OVCAR-5 ovarian
  TGI: > 100 µM
PC-3 prostate
  TGI: > 100 µM
SF-295 CNS
  TGI: > 100 µM

## COc1cc2c(cc1OC)C(Cc1ccccc1CCCl)=NCC2
ACHN renal
  TGI: > 100 µM
HCT-15 colon
  TGI: > 100 µM
HOP-62 NSCLC
  TGI: > 100 µM
NCI-H226 lung
  TGI: > 100 µM
NCI-H522 lung
  TGI: > 100 µM
OVCAR-5 ovarian
  TGI: > 100 µM
PC-3 prostate
  TGI: > 100 µM
SF-295 CNS
  TGI: > 100 µM

## CCOC(=O)c1c(C)[nH]c(/C=C2\N=C(c3ccc[nH]3)C=C2OC)c1C
ACHN renal
  GI50: 0.0321 µM
  TGI: 1.29 µM
HCT-15 colon
  GI50: < 0.01 µM
  TGI: 1.07 µM
HOP-62 NSCLC
  GI50: 0.0406 µM
  TGI: 1.17 µM
LOX IMVI melanoma
  GI50: < 0.01 µM
  TGI: 0.0168 µM
OVCAR-5 ovarian
  GI50: 0.0404 µM
  TGI: 1.51 µM
PC-3 prostate
  GI50: 0.0442 µM
  TGI: 2.45 µM
SF-295 CNS
  GI50: 0.105 µM
  TGI: 0.624 µM

## O=C(OCC1CCCN2CCCCC12)c1ccncc1 (centres undefined)
ACHN renal
  TGI: > 100 µM
HCT-15 colon
  TGI: > 100 µM
HOP-62 NSCLC
  TGI: > 100 µM
LOX IMVI melanoma
  TGI: > 100 µM
MDA-N
  TGI: > 100 µM
NCI-H226 lung
  TGI: > 100 µM
OVCAR-5 ovarian
  TGI: > 100 µM
PC-3 prostate
  TGI: > 100 µM
SF-295 CNS
  TGI: > 100 µM

## CSc1ccc(/C=C2\N=C(c3ccccc3)N(c3nc4c(Cl)cc(Cl)cc4s3)C2=O)cc1
ACHN renal
  TGI: 68.5 µM
HCT-15 colon
  TGI: > 100 µM
HOP-62 NSCLC
  TGI: 39.7 µM
LOX IMVI melanoma
  TGI: 82.1 µM
MDA-N
  TGI: 36.1 µM
OVCAR-5 ovarian
  TGI: > 100 µM
PC-3 prostate
  TGI: 43.3 µM
SF-295 CNS
  TGI: 79.7 µM

## OCCN=C1c2ccccc2C2C(c3ccccc31)C1c3ccccc3C(=NCCO)c3ccccc3C21 (centres undefined)
ACHN renal
  TGI: 76.9 µM
HCT-15 colon
  TGI: 63.9 µM
HOP-62 NSCLC
  TGI: 39.4 µM
LOX IMVI melanoma
  TGI: 52.6 µM
MDA-N
  TGI: 31.3 µM
NCI-H226 lung
  TGI: 17.8 µM
OVCAR-5 ovarian
  TGI: 60.7 µM
PC-3 prostate
  TGI: 53.8 µM
SF-295 CNS
  TGI: 30.6 µM

## CC[C@@]1(O)C(=O)OCc2c1cc1n(c2=O)Cc2c-1nc1ccccc1c2/C=N\NC(=O)C(N)Cc1cnc[nH]1 (some centres undefined)
ACHN renal
  TGI: 1.18 µM
HCT-15 colon
  TGI: > 100 µM
HOP-62 NSCLC
  TGI: 0.299 µM
LOX IMVI melanoma
  TGI: 3.37 µM
MDA-N
  TGI: > 100 µM
NCI-H226 lung
  TGI: 16.5 µM
NCI-H522 lung
  TGI: > 19.7 µM
OVCAR-5 ovarian
  TGI: > 54.6 µM
PC-3 prostate
  TGI: > 100 µM

## COc1cc(/C=C/C(=O)N[C@@H]2C(=O)N3[C@@H]2SC(C)(C)[C@@H]3C(=O)O)cc(OC)c1OC
ACHN renal
  TGI: > 100 µM
HCT-15 colon
  TGI: > 100 µM
LOX IMVI melanoma
  TGI: > 100 µM
MDA-N
  TGI: > 100 µM
NCI-H226 lung
  TGI: > 100 µM
NCI-H522 lung
  TGI: > 100 µM
OVCAR-5 ovarian
  TGI: > 100 µM
PC-3 prostate
  TGI: > 100 µM
SF-295 CNS
  TGI: > 100 µM

## O=C(N/N=C\c1ccc([N+](=O)[O-])cc1)c1ccccc1Nc1ccccc1C(=O)N/N=C/c1ccc([N+](=O)[O-])cc1
ACHN renal
  TGI: > 100 µM
HCT-15 colon
  TGI: > 100 µM
HOP-62 NSCLC
  TGI: > 100 µM
MDA-N
  TGI: > 100 µM
NCI-H226 lung
  TGI: > 100 µM
OVCAR-5 ovarian
  TGI: > 100 µM
PC-3 prostate
  TGI: > 100 µM
SF-295 CNS
  TGI: > 100 µM

## N#C[C@@]12CCCC(=O)[C@@H]1[C@H]1CCC[C@H]12
ACHN renal
  TGI: 33.1 µM
HCT-15 colon
  TGI: 38.2 µM
HOP-62 NSCLC
  TGI: 30.8 µM
LOX IMVI melanoma
  TGI: 31 µM
MDA-N
  TGI: 38.4 µM
NCI-H226 lung
  TGI: 47.6 µM
OVCAR-5 ovarian
  TGI: 25.7 µM
PC-3 prostate
  TGI: 35.7 µM
SF-295 CNS
  TGI: 44.6 µM

## CC(C)(C)OC(=O)NC(Cc1ccc(OCc2ccccc2)cn1)C(=O)N1CCSCC1 (centres undefined)
ACHN renal
  TGI: > 100 µM
HCT-15 colon
  TGI: > 100 µM
HOP-62 NSCLC
  TGI: > 100 µM
LOX IMVI melanoma
  TGI: > 100 µM
MDA-N
  TGI: > 100 µM
NCI-H522 lung
  TGI: > 100 µM
OVCAR-5 ovarian
  TGI: > 100 µM
PC-3 prostate
  TGI: 98.9 µM
SF-295 CNS
  TGI: > 100 µM

## O=C1OC[C@@H]2Cc3c([nH]c4ccccc34)[C@@H](c3cc(O)c(O)c(O)c3)N12
ACHN renal
  TGI: > 100 µM
HCT-15 colon
  TGI: > 100 µM
HOP-62 NSCLC
  TGI: 67.8 µM
MDA-N
  TGI: 82.5 µM
NCI-H226 lung
  TGI: 49.9 µM
NCI-H522 lung
  TGI: 22.8 µM
OVCAR-5 ovarian
  TGI: 46.2 µM
PC-3 prostate
  TGI: > 100 µM
SF-295 CNS
  TGI: 34 µM

## CN[C@@H](C)[C@H](OP(=O)(O)OC1[C@@H](O)[C@H](O)C(O)[C@H](O)[C@@H]1O)c1ccccc1 (some centres undefined)
ACHN renal
  TGI: > 100 µM
HCT-15 colon
  TGI: > 100 µM
HOP-62 NSCLC
  TGI: > 100 µM
MDA-N
  TGI: > 100 µM
NCI-H226 lung
  TGI: > 100 µM
NCI-H522 lung
  TGI: > 100 µM
OVCAR-5 ovarian
  TGI: > 100 µM
PC-3 prostate
  TGI: > 100 µM
SF-295 CNS
  TGI: > 100 µM

## COC(=O)c1cc2c3c(cc(O)c2[nH]1)N(C(=O)C1Cc2cc(OC)c(OC)c(OC)c2N1)CC3CCl (centres undefined)
HCT-15 colon
  GI50: < 0.01 µM
  TGI: 10.4 µM
LOX IMVI melanoma
  GI50: < 0.01 µM
  TGI: 0.291 µM
NCI-H522 lung
  GI50: < 0.01 µM
  TGI: < 0.01 µM
PC-3 prostate
  GI50: < 0.01 µM
  TGI: < 0.01 µM
SF-295 CNS
  GI50: < 0.01 µM
  TGI: < 0.01 µM

## Nc1nc(N)c2nc(-c3ccco3)cnc2n1
ACHN renal
  TGI: > 100 µM
HCT-15 colon
  TGI: > 100 µM
HOP-62 NSCLC
  TGI: > 100 µM
LOX IMVI melanoma
  TGI: > 100 µM
NCI-H226 lung
  TGI: > 100 µM
NCI-H522 lung
  TGI: > 100 µM
OVCAR-5 ovarian
  TGI: > 100 µM
SF-295 CNS
  TGI: > 100 µM

## Cc1ccc(S(=O)(=O)/N=C(\[O-])C2=C(c3ccccc3)NN(C)c3nc4cccc[n+]4nc32)cc1
ACHN renal
  TGI: > 100 µM
HCT-15 colon
  TGI: > 100 µM
LOX IMVI melanoma
  TGI: > 100 µM
MDA-N
  TGI: > 100 µM
NCI-H226 lung
  TGI: > 100 µM
NCI-H522 lung
  TGI: > 100 µM
OVCAR-5 ovarian
  TGI: > 100 µM
PC-3 prostate
  TGI: > 100 µM

## CCc1n[nH]c(=O)n1NC(=O)c1ccccc1C(=O)O
ACHN renal
  TGI: > 100 µM
HCT-15 colon
  TGI: > 100 µM
HOP-62 NSCLC
  TGI: > 100 µM
LOX IMVI melanoma
  TGI: > 100 µM
MDA-N
  TGI: > 100 µM
NCI-H522 lung
  TGI: > 100 µM
OVCAR-5 ovarian
  TGI: > 100 µM
PC-3 prostate
  TGI: > 100 µM
SF-295 CNS
  TGI: > 100 µM

## CCN(CC)CCSc1nc2c(c(=N)n1-c1ccccc1)c(=S)n(-c1ccccc1)c(=S)n2-c1ccccc1
ACHN renal
  TGI: 3.16 µM
HCT-15 colon
  TGI: 4.35 µM
HOP-62 NSCLC
  TGI: 8.32 µM
LOX IMVI melanoma
  TGI: 3.34 µM
MDA-N
  TGI: 6.55 µM
NCI-H226 lung
  TGI: 50.4 µM
OVCAR-5 ovarian
  TGI: 29 µM
PC-3 prostate
  TGI: 3.32 µM
SF-295 CNS
  TGI: 30.1 µM
